Experimental data: patent US20240067672A1, “FLAVONE DERIVATIVE FOR TREATING TUMORS AND USE THEREOF” (SICHUAN FUSHENGYUAN TECHNOLOGY CO., LTD, priority 2019, published 2024)
≈ marks a conversion by molar mass, not a printed value. Read-outs that look alike come from different tables or passages of the source.

How the values were obtained:
HepG2 hepatoma cells = test: Anti-tumor activity in vitro, MTT method, HepG2; format: cell-based, human; conditions: for IC50 compared with Icaritin, HepG2 72 h: HepG2, 72 h after administration; for IC50 compared with Icaritin, 48 and 72 h: HepG2 and SMMC7721, 48 and 72 h
Experimental: (§1) The effects of Icaritin and its derivatives on the activities of HepG2 and SMMC7721 hepatoma cells were investigated by a MTT method. […] After reaction for 48, 7 2 h, each well was added with 20 μL 5 mg/mL, of MTT solution, and incubated in a cell incubator for 3-4 h. Then the liquid in the well plates was sucked to discard. Each well was added with 150 μL of dimethyl sulfoxide (DMSO), and shaken on an enzyme-labeled instrument for 30 s at ambient temperature so that the Formazan crystals were dissolved sufficiently. The absorbance value A of each well at 570 nm was detected by the enzyme-labeled instrument, and the experiment was repeated for 3 times.

SMMC7721 hepatoma cells = test: Anti-tumor activity in vitro, MTT method, SMMC7721; format: cell-based, human; conditions: for IC50 compared with Icaritin, SMMC7721 72 h: SMMC7721, 72 h after administration
Experimental: as §1

[1] = Determination of solubility (HPLC); format: physicochemical; conditions: for solubility: 37 °C, thermodynamic from solid
Experimental: About 1.325 mg of Icaritin and the synthesized derivative were weighed and dissolved in 1.5 mL methanol respectively, then diluted with methanol into solutions of 10, 20, 50, 100, 150, 200, 500 μg/mL, and filtered over an organic-system filter head of 0.45 μm into sample bottles, obtaining the samples for test. Four parts of Icaritin and the synthesized derivative were weighed respectively, 1.00 mg for each part, and placed into 1.5 mL EP tubes, and 1 mL of water, normal saline, PBS, and 0.1% Tween 80 were respectively added thereto. The obtained solutions were ultrasonicated for 1 h, placed in a water bath at 37° C. overnight, and centrifuged at 10000 r/min for 3 min to collect supernatants. The supernatants were taken into sample bottles and detected by HPLC. The experiments were conducted in parallel for three times. The detection of HPLC is conducted under conditions of a chromatographic column of waters Symmetry C18, a mobile phase of a solution of methanol and water with a ratio of 80:20, a flow rate of 1.0 mL/min, a column temperature of 30° C., a detection wavelength of 210 nm, a run time of 30 min, and a sample load of 20 μL.

[2] = Homo sapiens, HepG2, 48 h, MTT, read-out: IC50 HepG2 48 h
[3] = Homo sapiens, HepG2, 72 h, MTT, read-out: IC50 HepG2 72 h
[4] = Homo sapiens, SMMC-7721, SMMC7721, 48 h, MTT, read-out: IC50 SMMC7721 48 h
[5] = Homo sapiens, SMMC-7721, SMMC7721, 72 h, MTT, read-out: IC50 SMMC7721 72 h
[6] = aqueous with cosolvent or surfactant or cyclodextrin
[7] = HepG2, 48 h, MTT, read-out: IC50 HepG2 48 h
[8] = HepG2, 72 h, MTT, read-out: IC50 HepG2 72 h
[9] = SMMC7721, 48 h, MTT, read-out: IC50 SMMC7721 48 h
[10] = SMMC7721, 72 h, MTT, read-out: IC50 SMMC7721 72 h

SMILES	IC50 compared with Icaritin, HepG2 72 h (HepG2 hepatoma cells)	IC50 (HepG2 hepatoma cells; [2])	IC50 (HepG2 hepatoma cells; [3])	IC50 (SMMC7721 hepatoma cells; [4])	IC50 (SMMC7721 hepatoma cells; [5])	solubility ([1]; aqueous buffer)	solubility [1, 6]	solubility ([1]; water)	Solubility, 0.1% Tween 80 [1]	Solubility, Normal Saline [1]	Solubility, PBS [1]	Solubility, Water [1]	IC50 compared with Icaritin, SMMC7721 72 h (SMMC7721 hepatoma cells)	IC50 (HepG2 hepatoma cells; [7])	IC50 (HepG2 hepatoma cells; [8])	IC50 (SMMC7721 hepatoma cells; [9])	IC50 (SMMC7721 hepatoma cells; [10])	further results
COc1ccc(-c2oc3c(CC=C(C)C)c(O)cc(O)c3c(=O)c2OC(=O)CCC(=O)OCc2cn(CCOCCO[C@H]3O[C@@H](CO)[C@H](O)[C@@H](O)[C@@H]3O)nn2)cc1 [Compound 44]	less than that of Icaritin	> 100 µM	10.1 ± 0.32 µM	> 100 µM	> 100 µM	11 ± 1.04 µg/mL (≈ 13.8 µM)	11.2 ± 1.09 µg/mL (≈ 14 µM)	11.3 ± 0.831 µg/mL (≈ 14.1 µM)										solubility compared with that of the bulk drug (Icaritin) [1]: improved effectively; solubility ([1]; saline or isotonic): 11 ± 1.03 µg/mL (≈ 13.8 µM)
COc1ccc(-c2oc3c(CC=C(C)C)c(O)cc(O)c3c(=O)c2OC(=O)CCC(=O)NCCCCCOCc2cn(C3O[C@H](CO)[C@@H](O)[C@H](O)[C@H]3O)nn2)cc1 (some centres unmarked) [Compound 81]	less than that of Icaritin	> 100 µM	12 ± 1.23 µM	> 100 µM	22.2 ± 1.45 µM				Insoluble	Insoluble	Insoluble	Insoluble						
COc1ccc(-c2oc3c(CC=C(C)C)c(O)cc(O)c3c(=O)c2OC(=O)CCC(=O)OCCOCCOCc2cn([C@H]3O[C@@H](CO)[C@H](O)[C@@H](O)[C@@H]3O)nn2)cc1 [Compound 64]		> 100 µM	32.6 ± 3.12 µM	> 100 µM	> 100 µM	0.991 ± 0.314 µg/mL (≈ 1.24 µM)	1.08 ± 0.756 µg/mL (≈ 1.35 µM)	2.24 ± 0.941 µg/mL (≈ 2.8 µM)		Insoluble								
COc1ccc(-c2oc3c(CC=C(C)C)c(O)cc(O)c3c(=O)c2OC(=O)CCC(=O)OCCCOCc2cn(CCO[C@H]3O[C@@H](CO)[C@H](O)[C@@H](O)[C@@H]3O)nn2)cc1 [Compound 96]	less than that of Icaritin	12 ± 0.82 µM	5.56 ± 0.8 µM	29.7 ± 1.23 µM	6.65 ± 1.29 µM	15.5 ± 1.31 µg/mL (≈ 19 µM)	16.8 ± 0.422 µg/mL (≈ 20.7 µM)	16.9 ± 0.462 µg/mL (≈ 20.7 µM)					less than that of Icaritin					IC50 compared with Icaritin, 48 and 72 h (HepG2 hepatoma cells): less than those of Icaritin; solubility compared with that of the bulk drug (Icaritin) [1]: improved effectively; solubility ([1]; saline or isotonic): 16.8 ± 0.313 µg/mL (≈ 20.7 µM)
COc1ccc(-c2oc3c(CC=C(C)C)c(O)cc(O)c3c(=O)c2OC(=O)CCC(=O)OCCOCCOCCOCCOCc2cn([C@H]3O[C@@H](CO)[C@H](O)[C@@H](O)[C@@H]3O)nn2)cc1 [Compound 50]		24.1 ± 3.06 µM	25.3 ± 2.11 µM	> 100 µM	46.5 ± 3.43 µM	4.53 ± 0.347 µg/mL (≈ 5.11 µM)	4.64 ± 1.27 µg/mL (≈ 5.22 µM)	4.55 ± 0.324 µg/mL (≈ 5.13 µM)		Insoluble								
COc1ccc(-c2oc3c(CC=C(C)C)c(O)cc(O)c3c(=O)c2OC(=O)CCC(=O)OCCOCc2cn(CCOCCOC3OC(CO)C(O)C(O)C3O)nn2)cc1 (centres unmarked) [Compound 73]									Insoluble	Insoluble	Insoluble	Insoluble		43.2 ± 1.21 µM	36.8 ± 0.65 µM	> 100 µM	37.2 ± 1.36 µM	
COc1ccc(-c2oc3c(CC=C(C)C)c(O)cc(O)c3c(=O)c2OC(=O)CCC(=O)OCCCCOCc2cn(CCOCCOC3OC(CO)C(O)C(O)C3O)nn2)cc1 (centres unmarked) [Compound 89]									Insoluble	Insoluble	Insoluble	Insoluble		> 100 µM	> 100 µM	> 100 µM	35.6 ± 1.36 µM	
COc1ccc(-c2oc3c(CC=C(C)C)c(O)cc(O)c3c(=O)c2OC(=O)CCC(=O)OCCOCCOCc2cn(CCO[C@@H]3O[C@H](CO)[C@@H](O)[C@H](O)[C@H]3O)nn2)cc1 [Compound 65]		> 100 µM	37.74 ± 0.2 µM	> 100 µM	> 100 µM				Insoluble	Insoluble	Insoluble	Insoluble						
COc1ccc(-c2oc3c(CC=C(C)C)c(O)cc(O)c3c(=O)c2OC(=O)CCC(=O)OCCOCc2cn(CCOC3OC(CO)C(O)C(O)C3O)nn2)cc1 (centres unmarked) [Compound 72]									5.697 ± 1.312 µg/mL (≈ 7.12 µM)	5.673 ± 1.031 µg/mL (≈ 7.09 µM)	5.656 ± 1.131 µg/mL (≈ 7.07 µM)	5.852 ± 0.748 µg/mL (≈ 7.32 µM)		> 100 µM	> 100 µM	> 100 µM	> 100 µM	
COc1ccc(-c2oc3c(CC=C(C)C)c(O)cc(O)c3c(=O)c2OC(=O)CCC(=O)OCc2cn(CCOC3OC(CO)C(O)C(O)C3O)nn2)cc1 (centres unmarked) [Compound 39]	less than that of Icaritin								13.819 ± 1.323 µg/mL (≈ 18.3 µM)	13.828 ± 1.123 µg/mL (≈ 18.3 µM)	13.825 ± 0.937 µg/mL (≈ 18.3 µM)	13.871 ± 1.031 µg/mL (≈ 18.4 µM)	less than that of Icaritin	> 100 µM	5.56 ± 0.6 µM	> 100 µM	6.65 ± 1.29 µM	solubility compared with that of the bulk drug (Icaritin) [1]: improved effectively
COc1ccc(-c2oc3c(CC=C(C)C)c(O)cc(O)c3c(=O)c2OC(=O)CCC(=O)OCCCCOCc2cn(C3OC(CO)C(O)C(O)C3O)nn2)cc1 (centres unmarked) [Compound 87]	less than that of Icaritin												less than that of Icaritin	> 100 µM	7.03 ± 0.67 µM	> 100 µM	12.7 ± 1.02 µM	Solubility, 0.1% Tween 80 ([1]; 0.1% Tween 80, 37° C. overnight, n = 3): 1.358 ± 0.235 µg/mL (≈ 1.73 µM); Solubility, PBS ([1]; PBS, 37° C. overnight, n = 3): Insoluble; Solubility, Normal Saline ([1]; normal saline, 37° C. overnight, n = 3): 1.386 ± 0.743 µg/mL (≈ 1.77 µM); Solubility, Water ([1]; water, 37° C. overnight, n = 3): 1.277 ± 0.836 µg/mL (≈ 1.63 µM)
COc1ccc(-c2oc3c(CC=C(C)C)c(O)cc(O)c3c(=O)c2OC(=O)CCC(=O)OCCOCc2cn(C3O[C@H](CO)[C@@H](O)[C@H](O)[C@H]3O)nn2)cc1 (some centres unmarked) [Compound 71]									Insoluble	Insoluble	Insoluble	Insoluble						IC50 (HepG2 hepatoma cells; Homo sapiens, HepG2, 48 h, read-out: IC50 HepG2 48 h): > 100 µM; IC50 (HepG2 hepatoma cells; Homo sapiens, HepG2, 72 h, read-out: IC50 HepG2 72 h): > 100 µM; IC50 (SMMC7721 hepatoma cells; Homo sapiens, SMMC-7721, 48 h, read-out: IC50 SMMC7721 48 h): > 100 µM; IC50 (SMMC7721 hepatoma cells; Homo sapiens, SMMC-7721, 72 h, read-out: IC50 SMMC7721 72 h): 29.7 ± 1.23 µM
COc1ccc(-c2oc3c(CC=C(C)C)c(O)cc(O)c3c(=O)c2OC(=O)CCC(=O)OCCOCCOCCOCc2cn(CCO[C@H]3O[C@@H](CO)[C@H](O)[C@@H](O)[C@@H]3O)nn2)cc1 [Compound 58]		19.7 ± 0.52 µM	20 ± 2.12 µM	> 100 µM	2.51 ± 0.72 µM	3.82 ± 0.874 µg/mL (≈ 4.31 µM)	3.89 ± 0.941 µg/mL (≈ 4.38 µM)	3.64 ± 0.374 µg/mL (≈ 4.1 µM)					less than that of Icaritin					solubility ([1]; saline or isotonic): 3.68 ± 0.947 µg/mL (≈ 4.15 µM)
COc1ccc(-c2oc3c(CC=C(C)C)c(O)cc(O)c3c(=O)c2OC(=O)CCC(=O)OCCCCOCc2cn(CCOC3OC(CO)C(O)C(O)C3O)nn2)cc1 (centres unmarked) [Compound 88]									8.384 ± 1.363 µg/mL (≈ 10.1 µM)	7.399 ± 0.384 µg/mL (≈ 8.94 µM)	Insoluble	7.597 ± 1.038 µg/mL (≈ 9.18 µM)		> 100 µM	> 100 µM	> 100 µM	40.5 ± 1.56 µM	
COc1ccc(-c2oc3c(CC=C(C)C)c(O)cc(O)c3c(=O)c2OC(=O)CCC(=O)OCCN(CCOCc2cn(CCOCCO[C@H]3O[C@@H](CO)[C@H](O)[C@@H](O)[C@@H]3O)nn2)c2ccccc2)cc1 [Compound 105]	less than that of Icaritin	15.1 ± 1.32 µM	7.69 ± 0.04 µM	> 100 µM	9.57 ± 1.2 µM		23.4 ± 1.12 µg/mL (≈ 24.3 µM)	23.6 ± 1.23 µg/mL (≈ 24.5 µM)			Insoluble		less than that of Icaritin					IC50 compared with Icaritin, 48 and 72 h (HepG2 hepatoma cells): less than those of Icaritin; solubility compared with that of the bulk drug (Icaritin) [1]: improved effectively; solubility ([1]; saline or isotonic): 23.9 ± 0.982 µg/mL (≈ 24.9 µM)
